The record followed here is patent US20060281763A1, “Carboxamide inhibitors of TGFbeta” (priority 2005, published 2006).

Like-named read-outs stand apart in the source and are kept apart here.

For this test, the target named is T1, TGFβ R1 (Homo sapiens, UniProt P36897).
T1 sequence (P36897 34-503): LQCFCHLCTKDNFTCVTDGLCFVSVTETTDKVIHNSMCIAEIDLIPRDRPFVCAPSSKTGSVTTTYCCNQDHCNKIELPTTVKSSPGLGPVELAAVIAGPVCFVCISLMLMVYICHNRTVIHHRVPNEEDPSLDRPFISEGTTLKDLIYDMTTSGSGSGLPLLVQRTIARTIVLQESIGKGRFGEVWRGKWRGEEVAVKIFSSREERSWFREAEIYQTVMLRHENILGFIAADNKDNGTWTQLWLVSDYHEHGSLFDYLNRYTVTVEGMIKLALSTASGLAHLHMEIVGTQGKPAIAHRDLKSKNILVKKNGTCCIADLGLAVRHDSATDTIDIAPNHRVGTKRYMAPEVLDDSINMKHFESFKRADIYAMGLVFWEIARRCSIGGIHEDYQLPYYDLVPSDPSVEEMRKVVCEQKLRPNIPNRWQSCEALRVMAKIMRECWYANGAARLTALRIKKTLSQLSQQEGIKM
As to the kind of experiment: TGFβ R1 autophosphorylation protocol (33P-ATP, phosphocellulose filter plate). The class given is biochemical. To be noted: 10 uM ATP, read-out: IC50 for Kinase Inhibition. On the procedure:
The compounds of the invention were tested for their ability to inhibit TGFβ by a TGFβ R^1 autophosphorylation protocol. This was conducted as follows: Compound dilutions and reagents were prepared fresh daily. Compounds were diluted from DMSO stock solutions to 2 times the desired assay concentration, keeping final DMSO concentration in the assay less than or equal to 1%. TGFβ R1 was diluted to 4 times the desired assay concentration in buffer+DTT. ATP was diluted into 4× reaction buffer, and gamma-^33P-ATP was added at 60 uCi/mL.
The assay was performed by adding 10 ul of the enzyme to 20 ul of the compound solution. The reaction was initiated by the addition of 10 ul of ATP mix. Final assay conditions included 10 uM ATP, 170 nM TGFβ R1, and […] in 20 mM MOPS, pH7. The reactions were incubated at room temperature for 20 minutes. The reactions were stopped by transferring 23 ul of reaction mixture onto a phosphocellulose 96-well filter plate, which had been pre-wetted with 15 ul of 0.25M H3PO4 per well. After 5 minutes, the wells were washed 4× with 75 mM H3PO4 and once with 95% ethanol. The plate was dried, scintillation cocktail was added to each well, and the wells were counted in a Packard TopCount microplate scintillation counter.

Setting [1] is: 170 nM TGFβ R1, 20 minutes at room temperature.
The mark [2] stands for this setting: 170 nM TGFβ R1, room temperature 20 minutes.

Usually IC50 stands for the concentration that gives 50% inhibition. For the molecule `COc1cnc(-c2cc(Cl)ccc2F)nc1Nc1ccncc1C(=O)NC[C@H]1O[C@@H](O)[C@H](O)[C@@H](O)[C@@H]1O` [Compound 34, 4-[2-(5-Chloro-2-fluoro-phenyl)-5-methoxy-pyrimidin-4-ylamino)-N-(3,4,5,6-tetahydroxy-tetrahrydro-pyran-2-ylmethyl)-nicotinamide], the IC50 under setting [1] was found to be 1160 nM. Regarding `COc1cnc(-c2cc(Cl)ccc2F)nc1Nc1ccncc1C(=O)NCCCNC(=O)NC(C)C` [Compound 66, 4-[2-(5-Chloro-2-fluoro-phenyl)-5-methoxy-pyrimidin-4-ylamino]-N-[3-(3-isopropyl-ureido)-propyl]-nicotinamide], the IC50 under setting [1] stood at 270 nM. For `COc1cnc(-c2cc(Cl)ccc2F)nc1Nc1ccncc1C(=O)NCCNCC(F)(F)F` [Compound 103, 4-[2-(5-Chloro-2-fluoro-phenyl)-5-methoxy-pyrimidin-4-ylamino]-N-[2-(2,2,2-trifluoro-ethylamino)-ethyl]-nicotinamide], the IC50 under setting [1] was determined as 130 nM. As to `O=C(NCCO)c1cnccc1Nc1nc(-c2cc(Cl)ccc2F)ncc1N1CCCC1` [Compound 24, 4-[2-(5-Chloro-2-fluoro-phenyl)-5-pyrrolidin-1-yl-pyrimidin-4-ylamino]-N-(2-hydroxy-ethyl)-nicotinamide], under setting [1], the 50% inhibitory concentration (IC50) came out at 490 nM. In the case of `COC[C@H]1OC(CCNCCCNC(=O)c2cnccc2Nc2nc(-c3cc(Cl)ccc3F)ncc2OC)[C@H](OC)[C@@H](OC)[C@@H]1OC` (some centres unmarked) [Compound 124, 4-[2-(5-Chloro-2-fluoro-phenyl)-5-methoxy-pyrimidin-4-ylamino]-N-{3-[2-(3,4,5-trimethoxy-6-methoxymethyl-tetrahydro-pyran-2-yl)-ethylamino]-propyl}-nicotinamide], the IC50 under setting [1] was found to be 42 nM. As to `CC(C)c1cnc(-c2cc(Cl)ccc2F)nc1Nc1ccncc1C(=O)NC1CCC[C@@H]1OCc1ccccc1` (stereo in doubt) [Compound 223, N-(2-Benzyloxy-cyclopentyl)-4-[2-(5-chloro-2-fluoro-phenyl)-5-isopropyl-pyrimidin-4-ylamino]-nicotinamide], the IC50 under setting [2] was determined as 7140 nM.

As to `COc1cnc(-c2cc(Cl)ccc2F)nc1Nc1ccncc1C(=O)NCC(C)=O` [Compound 168, 4-[2-(5-Chloro-2-fluoro-phenyl)-5-methoxy-pyrimidin-4-ylamino]-N-(2-oxo-propyl)-nicotinamide], the IC50 under setting [2] is 24 nM. `COc1cnc(-c2cc(Cl)ccc2F)nc1Nc1ccncc1C(=O)NCC(O)CN` (centres unmarked) [Compound 63, N-(3-Amino-2-hydroxy-propyl)-4-[2-(5-chloro-2-fluoro-phenyl)-5-methoxy-pyrimidin-4-ylamino]-nicotinamide]: under setting [1], the IC50 is 100 nM.

With `CC(C)c1cnc(-c2cc(Cl)ccc2F)nc1Nc1ccncc1C(=O)N[C@H]1CCC[C@@H]1O` [Compound 247, 4-[2-(5-Chloro-2-fluoro-phenyl)-5-isopropyl-pyrimidin-4-ylamino]-N-(2-hydroxy-cyclopentyl)-nicotinamide], the IC50 under setting [2] is 40 nM. As to `COc1ccc(NC(=O)NCCCNC(=O)c2cnccc2Nc2nc(-c3cc(Cl)ccc3F)ncc2OC)cc1OC` [Compound 67, 4-[2-(5-Chloro-2-fluoro-phenyl)-5-methoxy-pyrimidin-4-ylamino]-N-{3-[3-(3,4-dimethoxy-phenyl)-ureido]-propyl}-nicotinamide], the IC50 under setting [1] is 440 nM. On to `COc1cnc(-c2cc(Cl)ccc2F)nc1Nc1ccncc1C(=O)N1CC[C@@H](F)C1` [Compound 241, {4-[2-(5-Chloro-2-fluoro-phenyl)-5-methoxy-pyrimidin-4-ylamino]-pyridin-3-yl}-(3-fluoro-pyrrolidin-1-yl)-methanone], for which, under setting [2], the 50% inhibitory concentration (IC50) is 127 nM. In the case of `COc1cnc(-c2cc(Cl)ccc2F)nc1Nc1ccncc1C(=O)NCC(=O)O` [Compound 2, ({4-[2-(5-Chloro-2-fluoro-phenyl)-5-methoxy-pyrimidin-4-ylamino]-pyridine 3-carbonyl}-amino)-acetic acid], the IC50 under setting [1] worked out at 920 nM. For the molecule `COc1cnc(-c2cc(Cl)ccc2F)nc1Nc1ccncc1C(=O)NCCNC(=O)CC1O[C@H](CO)[C@@H](O)[C@H](O)[C@H]1O` (some centres unmarked) [Compound 147, 4-[2-(5-Chloro-2-fluoro-phenyl)-5-methoxy-pyrimidin-4-ylamino]-N-{2-[2-(3,4,5-trihydroxy-6-hydroxymethyl-tetrahydro-pyran-2-yl)-acatylamino]-ethyl}-nicotinamide], the IC50 under setting [1] amounted to 125 nM. Consider `CC(C)c1cnc(-c2cc(Cl)ccc2F)nc1Nc1ccncc1C(=O)NC1CC1CO` (centres unmarked) [Compound 172, 4-[2-(5-Chloro-2-fluoro-phenyl)-5-isopropyl-pyrimidin-4-ylamino]-N-(2-hydroxymethyl-cyclopropyl)-nicotinamide], for which the IC50 under setting [2] worked out at 5 nM.

As for `COc1cnc(-c2cc(Cl)ccc2F)nc1Nc1ccncc1C(=O)NCCCN1CCC[C@H]1C(N)=O` [Compound 123, N-[3-(2-Carbamoyl-pyrrolidin-1-yl)-propyl]-4-[2-(5-chloro-2-fluoro-phenyl)-5-methoxy-pyrimidin-4-ylamino]-nicotinamide], the half-maximal inhibitory concentration (IC50) under setting [1] is 23 nM.

With `CC(C)c1cnc(-c2cc(Cl)ccc2F)nc1Nc1ccncc1C(=O)N[C@@H]1CCC[C@H]1OCc1ccccc1` (stereo in doubt) [Compound 222, N-(2-Benzyloxy-cyclopentyl)-4-[2-(5-chloro-2-fluoro-phenyl)-5-isopropyl-pyrimidin-4-ylamino]-nicotinamide], the IC50 under setting [2] amounted to 7700 nM. Regarding `COc1cnc(-c2cc(Cl)ccc2F)nc1Nc1ccncc1C(=O)NC1CCN(C(=O)OC(C)(C)C)CC1` [Compound 8, 4-({4-[2-(5-Chloro-2-fluoro-phenyl)-5-methoxy-pyrimidin-4-ylamino]-pyridine-3-carbonyl}-amino)-piperidine-1-carboxylic acid tert-butyl ester], the 50% inhibitory concentration (IC50) under setting [1] turned out to be 60 nM. Regarding `CC(C)c1cnc(-c2cc(Cl)ccc2F)nc1Nc1ccncc1C(=O)NCCCN1CCC[C@H]1C(=O)N(C)C` [Compound 171, 4-[2-(5-Chloro-2-fluoro-phenyl)-5-isopropyl-pyrimidin-4-ylamino]-N-[3-(2-dimethylcarbamoyl-pyrrolidin-1-yl)-propyl]-nicotinamide], under setting [2], the IC50 worked out at 5 nM. Still for that read-out and setting: in the case of `COc1cnc(-c2cc(Cl)ccc2F)nc1Nc1ccncc1C(=O)N1CCC[C@H](O)C1` [Compound 221, {4-[2-(5-Chloro-2-fluoro-phenyl)-5-methoxy-pyrimidin-4-ylamino]-pyridin-3-yl}-(3-hydroxy-piperidin-1-yl)-methanone] it was 1460 nM; in that of `CCOCCCNC(=O)c1cnccc1Nc1nc(-c2cc(Cl)ccc2F)ncc1C(C)C` [Compound 187, 4-[2-(5-Chloro-2-fluoro-phenyl)-5-isopropyl-pyrimidin-4-ylamino]-N-(3-ethoxy-propyl)-nicotinamide], 12 nM.

In the case of `COc1cnc(-c2cc(Cl)ccc2F)nc1Nc1ccncc1C(=O)NCCCCCNC(=O)CCCC[C@H]1SC[C@@H]2NC(=O)N[C@@H]21` [Compound 202, 4-[2-(5-Chloro-2-fluoro-phenyl)-5-methoxy-pyrimidin-4-ylamino]-N-{5-[5-(2-oxo-hexahydro-thieno[3,4-d]imidazol-6-yl)-pentanoylamino]-pentyl]-nicotinamide], under setting [2], the IC50 turned out to be 54 nM. For `COc1cnc(-c2cc(Cl)ccc2F)nc1Nc1ccncc1C(=O)N1CCOCC1` [Compound 203, {4-[2-(5-Chloro-2-fluoro-phenyl)-5-methoxy-pyrimidin-4-ylamino]-pyridin-3-yl}-morpholin-4-yl-methanone], the IC50 under setting [2] was 176 nM. Take `COc1cnc(-c2cc(Cl)ccc2F)nc1Nc1ccncc1C(=O)NCCCN(CCC1O[C@H](CO)[C@@H](O)[C@H](O)[C@@H]1O)C(C)C` (some centres unmarked) [Compound 153, 4-[2-(5-Chloro-2-fluoro-phenyl)-5-methoxy-pyrimidin-4-ylamino]-N-(3-{isopropyl-[2-(3,4,5-trihydroxy-6-hydroxymethyl-tetrahydro-pyran-2-yl)-ethyl]-amino}-propyl)-nicotinamide]: under setting [1], the IC50 came out at 19 nM.

Take `COc1cnc(-c2cc(Cl)ccc2F)nc1Nc1ccncc1C(=O)NCCNCC(C)O` (centres unmarked) [Compound 5]: the IC50 under setting [1] came to 20 nM.

On to `COc1cnc(-c2cc(Cl)ccc2F)nc1Nc1ccncc1C(=O)NC1(CO)CC1` [Compound 162, 4-[2-(5-Chloro-2-fluoro-phenyl)-5-methoxy-pyrimidin-4-ylamino]-N-(1-hydroxymethyl-cyclopropyl)-nicotinamide], for which, under setting [2], the 50% inhibitory concentration (IC50) stood at 42 nM. Take `COc1cnc(-c2cc(Cl)ccc2F)nc1Nc1ccncc1C(=O)NCCCNCCNC(C)C` [Compound 14]: the half-inhibitory concentration (IC50) under setting [1] stood at 120 nM.
